Square brackets hold non-standard residues; d marks the D form. Peptide text beside a SMILES is read from it. pGlu = O=C1CC[CH](C(=O)O)N1
Legend:
H2O2-induced HT-22 cells = test: Neuroprotection in H2O2-injured HT-22 cells (CCK-8 cell viability); conditions: compound 50 μM; H2O2-only model (0 μM) 48.645±0.347
Glu-induced HT-22 cells = test: Neuroprotection in Glu-injured HT-22 cells (CCK-8 cell viability); conditions: for Cell viability(%) in Glu-induced HT-22 cells: Glu-only model (0 μM) 40.759±1.939
[1] = Serum pharmacokinetics of CDPs after oral administration of DHG (targeted LC-MS, noncompartmental analysis); conditions: for AUC0–24h / C max / T max: serum, mice, oral DHG 1000 mg/kg
[2] = FBMN analysis of short peptides in small intestine contents and serum after oral DHG; conditions: for Peptide signal (feature intensity) in the small intestine, 30 min / Peptide signal (feature intensity) in the small intestine, 60 min / Peptide signal (feature intensity) in the small intestine, 120 min / Peptide signal (feature intensity) in the small intestine, 240 min: small intestine contents, C57 mice, FBMN feature intensity, peptides smaller than 690 Da; for Peptide signal (feature intensity) in the small intestine, 30 min: 30 min after oral DHG; for Peptide signal (feature intensity) in the small intestine, 60 min: 60 min after oral DHG; for Peptide signal (feature intensity) in the small intestine, 120 min: 120 min after oral DHG; for Peptide signal (feature intensity) in the small intestine, 240 min: 240 min after oral DHG

CC[C@H](C)[C@@H]1NC(=O)[C@@H]2CCCN2C1=O [cyclo(Pro-Ile)]
Cell viability(%) in H2O2-induced HT-22 cells (H2O2-induced HT-22 cells): 61.087±0.749%
cell viability in Glu-injured HT-22 cells (Glu-induced HT-22 cells; 50 μM (stated for cyclo(Hyp-Ala)), 4 h pretreatment, then 20 mM Glu 24 h, model group 40.759 ± 1.939%): 63.104 ± 2.519 % cell viability
Cell viability(%) in Glu-induced HT-22 cells (Glu-induced HT-22 cells; compound 25 μM): 58.030±5.577%
AUC0–24h [1]: 71.9933 ng·h/mL
C max [1]: 24.5331 ng/mL
T max [1]: 30 min

O=C1[C@@H]2CCCN2C(=O)[C@@H]2CCCN12 [cyclo(Pro-Pro)]
Cell viability(%) in H2O2-induced HT-22 cells (H2O2-induced HT-22 cells): 60.084±2.807%
Cell viability(%) in Glu-induced HT-22 cells (Glu-induced HT-22 cells; compound 25 μM): 57.390±2.465%
Cell viability(%) in Glu-induced HT-22 cells (Glu-induced HT-22 cells; compound 50 μM): 58.451±5.789%
time of decline / return to baseline in serum ([1]; serum after oral DHG): up to 8 h
AUC0–24h [1]: 487.9963 ng·h/mL
C max [1]: 197.3334 ng/mL
T max [1]: 30 min

O=C1NCC(=O)N2CCC[C@@H]12 [cyclo(Gly-Pro)]
Cell viability(%) in H2O2-induced HT-22 cells (H2O2-induced HT-22 cells): 53.985±7.459%
Cell viability(%) in Glu-induced HT-22 cells (Glu-induced HT-22 cells; compound 25 μM): 54.865±0.079%
Cell viability(%) in Glu-induced HT-22 cells (Glu-induced HT-22 cells; compound 50 μM): 58.506±3.833%
AUC0–24h [1]: 15547.0170 ng·h/mL
C max [1]: 4259.0300 ng/mL
T max [1]: 60 min
time remained detectable in serum ([1]; serum/blood after oral DHG, sampled to 24 h): 12 h

CSCCC(N)C(=O)NC(C(=O)O)C(C)C (stereo not drawn) [Met-Val] (H-Met-Val-OH; configuration not given here)
Peptide signal (feature intensity) in the small intestine, 30 min [2]: 0.00E+00
Peptide signal (feature intensity) in the small intestine, 60 min [2]: 0.00E+00
Peptide signal (feature intensity) in the small intestine, 120 min [2]: 5.98E+05
Peptide signal (feature intensity) in the small intestine, 240 min [2]: 1.03E+06

CSCC[C@H](NC(=O)[C@@H](N)Cc1c[nH]c2ccccc12)C(=O)O [Trp-Met] (H-Trp-Met-OH)
Peptide signal (feature intensity) in the small intestine, 30 min [2]: 0.00E+00
Peptide signal (feature intensity) in the small intestine, 60 min [2]: 0.00E+00
Peptide signal (feature intensity) in the small intestine, 120 min [2]: 0.00E+00
Peptide signal (feature intensity) in the small intestine, 240 min [2]: 1.16E+06

N[C@@H](CO)C(=O)N[C@@H](Cc1ccccc1)C(=O)O [Ser-Phe]
Peptide signal (feature intensity) in the small intestine, 30 min [2]: 0.00E+00
Peptide signal (feature intensity) in the small intestine, 60 min [2]: 1.38E+06
Peptide signal (feature intensity) in the small intestine, 120 min [2]: 0.00E+00
Peptide signal (feature intensity) in the small intestine, 240 min [2]: 4.01E+05

CC(C)CC1NC(=O)C2CC(O)CN2C1=O [cyclo(L-Leu-L-Hyp)]
Peptide signal (feature intensity) in the small intestine, 30 min [2]: 9.23E+06
Peptide signal (feature intensity) in the small intestine, 60 min [2]: 0.00E+00
Peptide signal (feature intensity) in the small intestine, 120 min [2]: 5.32E+06
Peptide signal (feature intensity) in the small intestine, 240 min [2]: 2.54E+06

NC(Cc1ccc(O)cc1)C(=O)NC(Cc1ccc(O)cc1)C(=O)O (stereo not drawn) [Tyr-Tyr] (H-Tyr-Tyr-OH; configuration not given here)
Peptide signal (feature intensity) in the small intestine, 30 min [2]: 2.40E+05
Peptide signal (feature intensity) in the small intestine, 60 min [2]: 1.86E+06
Peptide signal (feature intensity) in the small intestine, 120 min [2]: 0.00E+00
Peptide signal (feature intensity) in the small intestine, 240 min [2]: 0.00E+00

NC(Cc1ccccc1)C(=O)NC(Cc1ccc(O)cc1)C(=O)O (stereo not drawn) [Phe-Tyr] (H-Phe-Tyr-OH; configuration not given here)
Peptide signal (feature intensity) in the small intestine, 30 min [2]: 4.42E+05
Peptide signal (feature intensity) in the small intestine, 60 min [2]: 1.79E+06
Peptide signal (feature intensity) in the small intestine, 120 min [2]: 8.30E+05
Peptide signal (feature intensity) in the small intestine, 240 min [2]: 0.00E+00

CC[C@H](C)[C@H](NC(=O)[C@@H](N)Cc1cnc[nH]1)C(=O)O [His-Ile] (H-His-Ile-OH)
Peptide signal (feature intensity) in the small intestine, 30 min [2]: 1.87E+07
Peptide signal (feature intensity) in the small intestine, 60 min [2]: 0.00E+00
Peptide signal (feature intensity) in the small intestine, 120 min [2]: 2.72E+07
Peptide signal (feature intensity) in the small intestine, 240 min [2]: 2.33E+07

N[C@@H](Cc1c[nH]c2ccccc12)C(=O)N[C@@H](CCC(=O)O)C(=O)O [Trp-Glu] (H-Trp-Glu-OH)
Peptide signal (feature intensity) in the small intestine, 30 min [2]: 0.00E+00
Peptide signal (feature intensity) in the small intestine, 60 min [2]: 0.00E+00
Peptide signal (feature intensity) in the small intestine, 120 min [2]: 0.00E+00
Peptide signal (feature intensity) in the small intestine, 240 min [2]: 1.26E+07

CSCC[C@H](N)C(=O)O [Methionine]
Peptide signal (feature intensity) in the small intestine, 30 min [2]: 0.00E+00
Peptide signal (feature intensity) in the small intestine, 60 min [2]: 0.00E+00
Peptide signal (feature intensity) in the small intestine, 120 min [2]: 1.12E+05
Peptide signal (feature intensity) in the small intestine, 240 min [2]: 2.58E+05

CC(C)[C@H](NC(=O)[C@@H]1CCC(=O)N1)C(=O)O [PyroGlu-Val] (HELM PEPTIDE1{[Glp].V}$$$$V2.0)
Peptide signal (feature intensity) in the small intestine, 30 min [2]: 0.00E+00
Peptide signal (feature intensity) in the small intestine, 60 min [2]: 7.64E+06
Peptide signal (feature intensity) in the small intestine, 120 min [2]: 0.00E+00
Peptide signal (feature intensity) in the small intestine, 240 min [2]: 1.03E+07

CC(C)CC1NC(=O)C(Cc2ccccc2)NC1=O (centres unmarked) [cyclo(Phe-Leu)]
Peptide signal (feature intensity) in the small intestine, 30 min [2]: 1.01E+05
Peptide signal (feature intensity) in the small intestine, 60 min [2]: 0.00E+00
Peptide signal (feature intensity) in the small intestine, 120 min [2]: 8.22E+05
Peptide signal (feature intensity) in the small intestine, 240 min [2]: 4.33E+05

CC[C@H](C)[C@H](NC(=O)[C@@H](N)Cc1ccccc1)C(=O)N[C@@H](CCCCN)C(=O)O [Phe-Ile-Lys] (H-Phe-Ile-Lys-OH)
Peptide signal (feature intensity) in the small intestine, 30 min [2]: 0.00E+00
Peptide signal (feature intensity) in the small intestine, 60 min [2]: 1.05E+05
Peptide signal (feature intensity) in the small intestine, 120 min [2]: 8.61E+05
Peptide signal (feature intensity) in the small intestine, 240 min [2]: 7.83E+05

NCC(=O)N[C@@H](Cc1ccc(O)cc1)C(=O)O [Gly-Tyr] (H-Gly-Tyr-OH)
Peptide signal (feature intensity) in the small intestine, 30 min [2]: 0.00E+00
Peptide signal (feature intensity) in the small intestine, 60 min [2]: 5.39E+06
Peptide signal (feature intensity) in the small intestine, 120 min [2]: 0.00E+00
Peptide signal (feature intensity) in the small intestine, 240 min [2]: 2.06E+07

CC(C)CC(NC(=O)C(N)Cc1ccc(O)cc1)C(=O)O (stereo not drawn) [Tyr-Leu] (H-Tyr-Leu-OH; configuration not given here)
Peptide signal (feature intensity) in the small intestine, 30 min [2]: 2.28E+06
Peptide signal (feature intensity) in the small intestine, 60 min [2]: 2.16E+06
Peptide signal (feature intensity) in the small intestine, 120 min [2]: 0.00E+00
Peptide signal (feature intensity) in the small intestine, 240 min [2]: 0.00E+00

N[C@@H](CC(=O)O)C(=O)N1CCC[C@H]1C(=O)O [Asp-Pro] (H-Asp-Pro-OH)
Peptide signal (feature intensity) in the small intestine, 30 min [2]: 0.00E+00
Peptide signal (feature intensity) in the small intestine, 60 min [2]: 7.32E+06
Peptide signal (feature intensity) in the small intestine, 120 min [2]: 1.15E+07
Peptide signal (feature intensity) in the small intestine, 240 min [2]: 2.09E+07

CCCC[C@H](NC(=O)[C@H](C)N)C(=O)O [L-Alanyl-L-norleucine] (HELM PEPTIDE1{A.[Nle]}$$$$V2.0)
Peptide signal (feature intensity) in the small intestine, 30 min [2]: 1.73E+05
Peptide signal (feature intensity) in the small intestine, 60 min [2]: 0.00E+00
Peptide signal (feature intensity) in the small intestine, 120 min [2]: 2.05E+05
Peptide signal (feature intensity) in the small intestine, 240 min [2]: 1.49E+05

CC(C)C[C@H](N)C(=O)N[C@@H](CCC(=O)O)C(=O)O [Leu-Glu] (H-Leu-Glu-OH)
Peptide signal (feature intensity) in the small intestine, 30 min [2]: 7.88E+06
Peptide signal (feature intensity) in the small intestine, 60 min [2]: 7.70E+06
Peptide signal (feature intensity) in the small intestine, 120 min [2]: 0.00E+00
Peptide signal (feature intensity) in the small intestine, 240 min [2]: 0.00E+00

CC(C)CC(NC(=O)C(N)CO)C(=O)O (stereo not drawn) [Ser-Leu] (H-Ser-Leu-OH; configuration not given here)
Peptide signal (feature intensity) in the small intestine, 30 min [2]: 0.00E+00
Peptide signal (feature intensity) in the small intestine, 60 min [2]: 1.15E+07
Peptide signal (feature intensity) in the small intestine, 120 min [2]: 0.00E+00
Peptide signal (feature intensity) in the small intestine, 240 min [2]: 1.59E+07

CC(C)C[C@H](NC(=O)[C@@H](N)Cc1ccccc1)C(=O)N[C@@H](CCCCN)C(=O)O [Phe-Leu-Lys] (H-Phe-Leu-Lys-OH)
Peptide signal (feature intensity) in the small intestine, 30 min [2]: 0.00E+00
Peptide signal (feature intensity) in the small intestine, 60 min [2]: 4.25E+05
Peptide signal (feature intensity) in the small intestine, 120 min [2]: 0.00E+00
Peptide signal (feature intensity) in the small intestine, 240 min [2]: 8.08E+05

Cc1cn([C@H]2C[C@H](O)[C@@H](CO)O2)c(=O)[nH]c1=O [Thymidine]
Peptide signal (feature intensity) in the small intestine, 30 min [2]: 6.40E+05
Peptide signal (feature intensity) in the small intestine, 60 min [2]: 1.66E+05
Peptide signal (feature intensity) in the small intestine, 120 min [2]: 0.00E+00
Peptide signal (feature intensity) in the small intestine, 240 min [2]: 0.00E+00

CC(C)[C@H](NC(=O)[C@@H](N)Cc1ccc(O)cc1)C(=O)O [Tyr-Val] (H-Tyr-Val-OH)
Peptide signal (feature intensity) in the small intestine, 30 min [2]: 2.96E+06
Peptide signal (feature intensity) in the small intestine, 60 min [2]: 1.48E+06
Peptide signal (feature intensity) in the small intestine, 120 min [2]: 0.00E+00
Peptide signal (feature intensity) in the small intestine, 240 min [2]: 0.00E+00

CCC(C)C(NC(=O)C1CCC(=O)N1)C(=O)O (centres unmarked) [PyroGlu-Ile] ([pGlu]-Ile-OH; configuration not given here)
time detected in serum (FBMN) ([2]; serum, time points 0.5-4 h after oral DHG): only detected in the first hour
Peptide signal (feature intensity) in the small intestine, 30 min [2]: 7.74E+05
Peptide signal (feature intensity) in the small intestine, 60 min [2]: 1.17E+06
Peptide signal (feature intensity) in the small intestine, 120 min [2]: 5.33E+05
Peptide signal (feature intensity) in the small intestine, 240 min [2]: 0.00E+00

CC(C)CC(NC(=O)C1CCCN1)C(=O)O (stereo not drawn) [Pro-Leu] (H-Pro-Leu-OH; configuration not given here)
Peptide signal (feature intensity) in the small intestine, 30 min [2]: 5.47E+07
Peptide signal (feature intensity) in the small intestine, 60 min [2]: 1.43E+07
Peptide signal (feature intensity) in the small intestine, 120 min [2]: 0.00E+00
Peptide signal (feature intensity) in the small intestine, 240 min [2]: 0.00E+00

Source: paper PMC12616683, “In Vivo Atlas of Neuroprotective Cyclic Dipeptides Derived from Food Gelatin Using Peptidomics and Feature-Based Molecular Networking” (Journal of Agricultural and Food Chemistry, 2025)
